According to ChEMBL document CHEMBL6109114, “Design, synthesis, and biological evaluation of 4-(2-fluorophenoxy)pyridine derivatives as novel FLT3-ITD inhibitors” (Eur J Med Chem, 2025):
Calls of active or inactive are those of the source. The calls are words filed in the database; no cut-off is given here.

Tests used:
BaF3 [1] = assay: Antiproliferative activity against mouse BaF3 cells harbouring VEGFR2 assessed as inhibition of cell growth measured after 3 days by celltiter-glo luminescent cell viability assay; type: functional, cell-based; conditions: BaF3, 72 h
[2] = Antiproliferative activity against non-FLT3 expressing human OCI-Ly1 cells assessed as inhibition of cell growth measured after 3 days by celltiter-glo luminescent cell viability assay; type: functional, cell-based; conditions: OCI-Ly1, 72 h
A549 = assay: Antiproliferative activity against non-FLT3 expressing human A549 cells assessed as inhibition of cell growth measured after 3 days by celltiter-glo luminescent cell viability assay; type: functional, cell-based; conditions: A549, 72 h
MOLM-13 [3] = assay: Antiproliferative activity against human MOLM-13 cells harbouring FLT3-ITD assessed as inhibition of cell growth measured after 3 days by celltiter-glo luminescent cell viability assay; type: functional, cell-based; conditions: MOLM-13, 72 h
[4] = Antiproliferative activity against human PBMC cells assessed as inhibition of cell growth measured after 3 days by celltiter-glo luminescent cell viability assay; type: toxicity, cell-based
[5] = molecular target: T1, Cyclin-dependent kinase 2/cyclin A (Homo sapiens) (UniProt P24941+P20248+P78396); assay: Inhibition of human CDK2/CyclinA at 1 uM by Eurofins-DiscoverX assay; type: protein-complex assay
[6] = molecular target: T2, CDK3/Cyclin E (Homo sapiens) (UniProt P24864+Q00526); assay: Inhibition of human CDK3/CyclinE at 1 uM by Eurofins-DiscoverX assay; type: protein-complex assay
T2 sequence (P24864 whole entry, looked up): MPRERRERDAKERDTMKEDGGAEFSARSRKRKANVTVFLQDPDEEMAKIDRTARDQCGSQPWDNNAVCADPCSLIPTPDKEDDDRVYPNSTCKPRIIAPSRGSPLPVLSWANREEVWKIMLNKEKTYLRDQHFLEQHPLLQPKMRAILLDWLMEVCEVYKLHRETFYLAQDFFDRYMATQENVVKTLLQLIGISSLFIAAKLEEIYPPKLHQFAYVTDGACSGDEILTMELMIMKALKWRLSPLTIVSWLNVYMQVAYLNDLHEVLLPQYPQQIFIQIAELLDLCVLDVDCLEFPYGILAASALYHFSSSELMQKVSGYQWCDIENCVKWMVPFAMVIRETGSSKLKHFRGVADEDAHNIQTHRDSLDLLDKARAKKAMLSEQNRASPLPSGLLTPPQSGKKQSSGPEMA
T2 sequence (Q00526 whole entry, looked up): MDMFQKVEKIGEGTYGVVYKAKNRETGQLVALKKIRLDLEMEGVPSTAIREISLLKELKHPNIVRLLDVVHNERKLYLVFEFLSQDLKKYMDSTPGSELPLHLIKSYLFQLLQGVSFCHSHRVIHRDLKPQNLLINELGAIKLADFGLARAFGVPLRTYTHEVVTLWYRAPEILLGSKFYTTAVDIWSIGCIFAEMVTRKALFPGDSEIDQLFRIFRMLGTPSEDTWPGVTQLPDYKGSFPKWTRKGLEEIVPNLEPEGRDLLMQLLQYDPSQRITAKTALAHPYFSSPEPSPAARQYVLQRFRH

[7] = molecular target: Cyclin-dependent kinase 1/cyclin B1 (Homo sapiens) (UniProt P06493+P14635); assay: Inhibition of human CDK1/CyclinB1 assessed as remaining activity at 1 uM by Eurofins-DiscoverX assay relative to control; type: protein-complex assay
[8] = molecular target: T1, Cyclin-dependent kinase 2/cyclin A (Homo sapiens); assay: Inhibition of human CDK2/CyclinA assessed as remaining activity at 1 uM by Eurofins-DiscoverX assay relative to control; type: protein-complex assay
[9] = molecular target: T2, CDK3/Cyclin E (Homo sapiens); assay: Inhibition of human CDK3/CyclinE assessed as remaining activity at 1 uM by Eurofins-DiscoverX assay relative to control; type: protein-complex assay
[10] = molecular target: Mast/stem cell growth factor receptor Kit (Homo sapiens) (UniProt P10721); assay: Inhibition of human c-Kit assessed as remaining activity at 1 uM by Eurofins-DiscoverX assay relative to control
Sequence of Mast/stem cell growth factor receptor Kit (Homo sapiens) (P10721 whole entry): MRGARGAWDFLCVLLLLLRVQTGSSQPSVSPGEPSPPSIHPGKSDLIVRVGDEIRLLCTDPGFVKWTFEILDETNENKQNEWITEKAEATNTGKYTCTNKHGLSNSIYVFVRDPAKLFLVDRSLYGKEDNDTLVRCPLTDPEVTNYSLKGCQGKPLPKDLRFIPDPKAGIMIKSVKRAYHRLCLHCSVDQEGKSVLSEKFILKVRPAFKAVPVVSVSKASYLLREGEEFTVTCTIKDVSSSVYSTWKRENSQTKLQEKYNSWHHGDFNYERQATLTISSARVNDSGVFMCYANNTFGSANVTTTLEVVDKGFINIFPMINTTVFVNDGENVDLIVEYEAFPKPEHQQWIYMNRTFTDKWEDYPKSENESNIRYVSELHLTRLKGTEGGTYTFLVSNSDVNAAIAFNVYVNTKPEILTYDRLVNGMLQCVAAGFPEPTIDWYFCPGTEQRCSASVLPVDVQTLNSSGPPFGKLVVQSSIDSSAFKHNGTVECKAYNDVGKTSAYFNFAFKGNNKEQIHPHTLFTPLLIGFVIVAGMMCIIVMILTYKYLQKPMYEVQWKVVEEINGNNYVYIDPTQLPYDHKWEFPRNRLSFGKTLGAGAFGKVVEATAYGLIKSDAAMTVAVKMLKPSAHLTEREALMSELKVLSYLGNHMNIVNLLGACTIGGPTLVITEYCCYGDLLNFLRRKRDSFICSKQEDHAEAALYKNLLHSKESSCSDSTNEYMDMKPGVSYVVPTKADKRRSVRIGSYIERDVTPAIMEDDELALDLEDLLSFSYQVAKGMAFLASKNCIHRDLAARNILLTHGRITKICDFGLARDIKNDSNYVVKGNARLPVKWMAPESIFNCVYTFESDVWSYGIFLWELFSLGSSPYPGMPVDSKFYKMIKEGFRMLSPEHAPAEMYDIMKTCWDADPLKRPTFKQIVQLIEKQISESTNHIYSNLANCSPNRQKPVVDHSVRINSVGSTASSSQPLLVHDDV

[11] = molecular target: CDK4/Cyclin D3 (Homo sapiens) (UniProt P11802+P30281); assay: Inhibition of human CDK4/cyclinD3 assessed as remaining activity at 1 uM by Eurofins-DiscoverX assay relative to control; type: protein-complex assay
[12] = molecular target: Vascular endothelial growth factor receptor 2 (Homo sapiens, UniProt P35968); assay: Inhibition of VEGFR2 (unknown origin) using Fluorescein-Poly GT as substrate preincubated for 10 mins followed by substrate addition and measured after 30 mins in presence of ATP by mobility shift assay
Sequence of Vascular endothelial growth factor receptor 2 (P35968 whole entry): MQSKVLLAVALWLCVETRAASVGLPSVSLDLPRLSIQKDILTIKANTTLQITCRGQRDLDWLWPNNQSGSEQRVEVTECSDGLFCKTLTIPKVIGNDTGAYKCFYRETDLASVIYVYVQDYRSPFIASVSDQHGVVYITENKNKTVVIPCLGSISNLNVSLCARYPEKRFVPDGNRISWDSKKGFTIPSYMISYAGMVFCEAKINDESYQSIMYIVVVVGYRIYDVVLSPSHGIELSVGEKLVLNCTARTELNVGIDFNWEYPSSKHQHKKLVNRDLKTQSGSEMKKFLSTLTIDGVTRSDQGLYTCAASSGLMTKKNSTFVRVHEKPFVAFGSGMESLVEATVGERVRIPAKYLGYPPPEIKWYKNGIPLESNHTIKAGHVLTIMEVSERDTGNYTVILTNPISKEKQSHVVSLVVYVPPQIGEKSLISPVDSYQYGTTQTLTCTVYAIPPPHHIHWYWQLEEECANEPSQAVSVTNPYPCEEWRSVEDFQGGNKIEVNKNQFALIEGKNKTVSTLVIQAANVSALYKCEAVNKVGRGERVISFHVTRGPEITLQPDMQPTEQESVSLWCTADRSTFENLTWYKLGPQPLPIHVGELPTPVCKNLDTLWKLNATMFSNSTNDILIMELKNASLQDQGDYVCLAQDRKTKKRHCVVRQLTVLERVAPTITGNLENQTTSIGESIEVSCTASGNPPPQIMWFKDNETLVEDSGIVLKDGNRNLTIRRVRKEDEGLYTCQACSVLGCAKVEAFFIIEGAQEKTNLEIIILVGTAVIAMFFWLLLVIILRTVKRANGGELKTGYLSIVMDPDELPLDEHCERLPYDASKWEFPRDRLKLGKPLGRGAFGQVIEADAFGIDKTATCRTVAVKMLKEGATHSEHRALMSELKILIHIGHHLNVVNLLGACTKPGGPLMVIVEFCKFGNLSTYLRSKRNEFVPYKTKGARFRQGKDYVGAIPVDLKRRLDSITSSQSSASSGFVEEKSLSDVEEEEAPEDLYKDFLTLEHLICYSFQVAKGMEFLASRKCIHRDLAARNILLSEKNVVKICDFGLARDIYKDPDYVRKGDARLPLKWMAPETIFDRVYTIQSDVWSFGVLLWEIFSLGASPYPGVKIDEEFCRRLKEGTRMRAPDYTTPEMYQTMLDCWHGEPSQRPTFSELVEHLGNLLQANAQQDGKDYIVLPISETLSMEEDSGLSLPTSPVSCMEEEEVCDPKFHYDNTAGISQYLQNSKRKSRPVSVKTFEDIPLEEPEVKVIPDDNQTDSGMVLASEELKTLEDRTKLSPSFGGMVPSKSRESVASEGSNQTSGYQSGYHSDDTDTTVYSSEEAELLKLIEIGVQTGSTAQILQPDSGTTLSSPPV

[13] = molecular target: Receptor-type tyrosine-protein kinase FLT3 (Homo sapiens, UniProt P36888, ITD); assay: Inhibition of FLT3 ITD mutant (unknown origin) using Fluorescein-Poly GT as substrate preincubated for 10 mins followed by substrate addition and measured after 30 mins in presence of ATP by mobility shift assay
[14] = molecular target: Vascular endothelial growth factor receptor 3 (Homo sapiens, UniProt P35916); assay: Inhibition of FLT4 (unknown origin) using Fluorescein-Poly GT as substrate preincubated for 10 mins followed by substrate addition and measured after 30 mins in presence of ATP by mobility shift assay
Sequence of Vascular endothelial growth factor receptor 3 (P35916 whole entry): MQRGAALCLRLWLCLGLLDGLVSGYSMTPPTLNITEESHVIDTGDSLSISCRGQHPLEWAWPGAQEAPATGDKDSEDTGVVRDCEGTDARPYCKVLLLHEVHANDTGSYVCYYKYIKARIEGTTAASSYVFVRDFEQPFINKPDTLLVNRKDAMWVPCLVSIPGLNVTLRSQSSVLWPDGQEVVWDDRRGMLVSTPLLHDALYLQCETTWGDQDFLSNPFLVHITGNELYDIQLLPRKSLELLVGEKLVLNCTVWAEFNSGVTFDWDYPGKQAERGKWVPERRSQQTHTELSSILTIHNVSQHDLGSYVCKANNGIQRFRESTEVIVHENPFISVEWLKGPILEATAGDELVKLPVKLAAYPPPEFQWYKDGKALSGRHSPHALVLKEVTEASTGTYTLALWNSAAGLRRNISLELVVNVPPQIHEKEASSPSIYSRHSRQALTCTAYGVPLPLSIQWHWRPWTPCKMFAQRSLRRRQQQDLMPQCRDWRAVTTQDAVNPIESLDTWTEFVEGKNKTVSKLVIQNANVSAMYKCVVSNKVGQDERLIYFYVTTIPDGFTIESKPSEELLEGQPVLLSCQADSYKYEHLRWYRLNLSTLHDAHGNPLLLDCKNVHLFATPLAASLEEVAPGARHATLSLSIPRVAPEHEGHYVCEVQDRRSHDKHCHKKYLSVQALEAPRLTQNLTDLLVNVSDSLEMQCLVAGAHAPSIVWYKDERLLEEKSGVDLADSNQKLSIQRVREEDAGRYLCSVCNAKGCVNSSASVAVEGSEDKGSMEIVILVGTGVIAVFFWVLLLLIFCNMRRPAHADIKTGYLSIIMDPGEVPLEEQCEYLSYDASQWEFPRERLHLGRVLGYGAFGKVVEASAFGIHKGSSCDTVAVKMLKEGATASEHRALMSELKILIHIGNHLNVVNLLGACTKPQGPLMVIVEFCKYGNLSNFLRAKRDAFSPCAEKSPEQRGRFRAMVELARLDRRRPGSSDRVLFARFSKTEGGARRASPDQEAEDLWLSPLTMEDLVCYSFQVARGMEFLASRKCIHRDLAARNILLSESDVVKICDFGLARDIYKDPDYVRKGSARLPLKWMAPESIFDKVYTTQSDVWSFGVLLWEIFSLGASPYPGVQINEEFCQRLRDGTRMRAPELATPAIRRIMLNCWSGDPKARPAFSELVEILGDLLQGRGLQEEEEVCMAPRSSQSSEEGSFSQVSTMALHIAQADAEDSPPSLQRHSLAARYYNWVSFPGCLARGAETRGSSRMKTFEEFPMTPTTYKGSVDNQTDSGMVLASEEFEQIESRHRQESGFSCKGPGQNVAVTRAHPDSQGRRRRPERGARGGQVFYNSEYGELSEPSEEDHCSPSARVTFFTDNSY

BaF3 [15] = assay: Antiproliferative activity against mouse BaF3 cells harbouring FLT3-ITD-D835V mutant assessed as inhibition of cell growth measured after 3 days by celltiter-glo luminescent cell viability assay; type: functional, cell-based; conditions: BaF3, 72 h
BaF3 [16] = assay: Antiproliferative activity against mouse BaF3 cells harbouring FLT3-ITD-D835Y mutant assessed as inhibition of cell growth measured after 3 days by celltiter-glo luminescent cell viability assay; type: functional, cell-based; conditions: BaF3, 72 h
BaF3 [17] = assay: Antiproliferative activity against mouse BaF3 cells harbouring FLT3-ITD-F691L mutant assessed as inhibition of cell growth measured after 3 days by celltiter-glo luminescent cell viability assay; type: functional, cell-based; conditions: BaF3, 72 h
MOLM-13 [18] = assay: Inhibition of STAT5 phosphorylation in human MOLM-13 cells at 0.2 uM measured after 2 hrs by Western blot analysis relative to control; type: cell-based
MOLM-13 [19] = assay: Induction of apoptosis in human MOLM-13 cells assessed as early apoptotic cells at 0.1 uM incubated for 48 hrs by Annexin V-FITC/PI staining based flow cytometry analysis (reference value: 4.93%); type: functional
MOLM-13 [20] = assay: Induction of apoptosis in human MOLM-13 cells assessed as early apoptotic cells at 1 uM incubated for 48 hrs by Annexin V-FITC/PI staining based flow cytometry analysis (reference value: 4.93%); type: functional
MOLM-13 [21] = assay: Induction of apoptosis in human MOLM-13 cells assessed as necrotic cells at 0.1 uM incubated for 48 hrs by Annexin V-FITC/PI staining based flow cytometry analysis (reference value: 0.077%); type: functional
MOLM-13 [22] = assay: Induction of cell cycle arrest in human MOLM-13 cells assessed as accumulation of cells at G1 phase at 1 uM incubated for 48 hrs (reference value: 40.3%); type: functional
MOLM-13 [23] = assay: Induction of cell cycle arrest in human MOLM-13 cells assessed as accumulation of cells at S phase at 0.1 uM incubated for 48 hrs (reference value: 41.6%); type: functional
[24] = Metabolic stability in Sprague-Dawley rat liver microsomes assessed as intrinsic clearance at 1 uM measured up to 60 mins in presence of NADPH regenerating system by LC-MS/MS analysis; type: ADME, Microsome; conditions: read-out: CLH
[25] = Metabolic stability in Sprague-Dawley rat liver microsomes assessed as parent compound remaining at 1 uM measured after 60 mins in presence of NADPH regenerating system by LC-MS/MS analysis; type: ADME, Microsome; conditions: read-out: Stability
[26] = Metabolic stability in Sprague-Dawley rat liver microsomes assessed as parent compound remaining at 1 uM measured after 60 mins by LC-MS/MS analysis; type: ADME, Microsome; conditions: read-out: Stability
[27] = Metabolic stability in human liver microsomes assessed as half life at 1 uM measured up to 60 mins in presence of NADPH regenerating system by LC-MS/MS analysis; type: ADME, Microsome
[28] = Metabolic stability in human liver microsomes assessed as intrinsic clearance at 1 uM measured up to 60 mins in presence of NADPH regenerating system by LC-MS/MS analysis; type: ADME, Microsome; conditions: read-out: CLH
CYP2C9 = CYP2C9 (Homo sapiens, UniProt P11712); assay: Inhibition of CYP2C9 in human liver microsomes using diclofenac as substrate at 10 uM incubated for 10 mins in presence of NADPH by LC-MS/MS analysis relative to control; type: ADME, Microsome; conditions: probe diclofenac
Sequence of CYP2C9 (P11712 whole entry): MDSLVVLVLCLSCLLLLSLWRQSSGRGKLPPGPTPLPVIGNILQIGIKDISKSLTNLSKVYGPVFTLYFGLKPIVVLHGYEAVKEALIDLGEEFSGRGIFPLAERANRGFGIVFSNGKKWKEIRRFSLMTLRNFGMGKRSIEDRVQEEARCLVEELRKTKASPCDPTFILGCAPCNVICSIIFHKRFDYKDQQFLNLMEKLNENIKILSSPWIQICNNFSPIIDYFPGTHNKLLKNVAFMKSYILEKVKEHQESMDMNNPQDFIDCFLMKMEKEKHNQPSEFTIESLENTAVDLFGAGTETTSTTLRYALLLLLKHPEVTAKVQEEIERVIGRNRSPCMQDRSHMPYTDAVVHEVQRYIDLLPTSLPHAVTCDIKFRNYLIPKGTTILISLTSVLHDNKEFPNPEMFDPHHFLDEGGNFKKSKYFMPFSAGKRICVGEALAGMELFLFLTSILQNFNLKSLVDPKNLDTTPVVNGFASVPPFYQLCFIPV

[29] = Cmax in mouse at 5 mg/kg, iv; type: ADME, organism-based; conditions: in vivo
[30] = AUC (0 to infinity) in mouse at 5 mg/kg, iv; type: ADME, organism-based; conditions: in vivo
[31] = MRT (0 to t) in mouse at 5 mg/kg, iv; type: ADME, organism-based; conditions: in vivo
[32] = Clearance in mouse at 5 mg/kg, iv; type: ADME, organism-based; conditions: in vivo
[33] = Tmax in mouse at 10 mg/kg, po; type: ADME, organism-based; conditions: in vivo
[34] = AUC (0 to t) in mouse at 10 mg/kg, po; type: ADME, organism-based; conditions: in vivo
[35] = AUC (0 to infinity) in mouse at 10 mg/kg, po; type: ADME, organism-based; conditions: in vivo
[36] = MRT (0 to t) in mouse at 10 mg/kg, po; type: ADME, organism-based; conditions: in vivo

## Cc1cc(=O)n(-c2cc(Cl)ccc2F)nc1C(=O)Nc1ccc(Oc2ccnc(NC(=O)N3CC(O)C3)c2)c(F)c1
BaF3 [1]
  IC50: 310 nM
[2]
  IC50: 12300 nM
A549
  IC50: > 30000 nM
MOLM-13 [3]
  IC50: 140 nM
[4]
  IC50 at 3 days: > 30000 nM
[5]
  inhibition: inactive
[6]
  inhibition: inactive
[7]
  Activity: 88%
[8]
  Activity: 88%
[9]
  Activity: 88%
[10]
  Activity: 88%
[11]
  Activity: 88%
[12]
  IC50: 131 nM
[13]
  IC50: 153 nM
[14]
  IC50: 166 nM
BaF3 [15]
  IC50: 7800 nM
BaF3 [16]
  IC50: 6600 nM
BaF3 [17]
  IC50: 4900 nM
MOLM-13 [18]
  inhibition: 100%
MOLM-13 [19]
  Activity: 5.69%
MOLM-13 [20]
  Activity: 29.6%
MOLM-13 [21]
  Activity: 0.062%
MOLM-13 [22]
  Activity: 78.2%
MOLM-13 [23]
  Activity: 40.5%
[24]
  microsomal CLint at 1 µM: 11.8 µL/min/mg
[25]
  remaining at 1 h, 1 µM: 69.2%
[26]
  remaining at 1 h, 1 µM: 108%
[27]
  half-life at 1 µM: 1.82 h
[28]
  microsomal CLint at 1 µM: 12.7 µL/min/mg
CYP2C9
  inhibition at 10 min, 10 µM: 25.6%
[29]
  Cmax: 443 ng/mL
[30]
  AUC(0-inf): 2210 ng·h/mL
[31]
  MRT last: 7.17 h
[32]
  clearance: 38.8 mL/min/kg
[33]
  Tmax: 1.17 h
[34]
  AUC(0-t): 1400 ng·h/mL
[35]
  AUC(0-inf): 1430 ng·h/mL
[36]
  MRT last: 3.37 h
